Experimental data published in publication PMC9828467 (Chemmedchem, 2022).

Assays:
plasmin = conditions: cited from earlier work
[1] = target: Plasmin from human plasma (Homo sapiens, UniProt P00747); assay: Plasmin inhibition assay with chromogenic substrate S-2251; assay type: biochemical; conditions: ratio to Ki of monovalent AMB
Plasmin from human plasma, sequence (P00747 581-810 limits assumed): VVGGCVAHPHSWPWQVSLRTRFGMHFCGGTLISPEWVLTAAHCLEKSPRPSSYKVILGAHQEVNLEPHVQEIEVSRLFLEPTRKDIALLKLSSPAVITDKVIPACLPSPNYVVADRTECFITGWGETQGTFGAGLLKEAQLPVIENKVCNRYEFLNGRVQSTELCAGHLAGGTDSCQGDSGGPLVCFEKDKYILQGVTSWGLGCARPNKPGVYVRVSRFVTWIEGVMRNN
Plasmin from human plasma, sequence (P00747 98-580 partner limits assumed): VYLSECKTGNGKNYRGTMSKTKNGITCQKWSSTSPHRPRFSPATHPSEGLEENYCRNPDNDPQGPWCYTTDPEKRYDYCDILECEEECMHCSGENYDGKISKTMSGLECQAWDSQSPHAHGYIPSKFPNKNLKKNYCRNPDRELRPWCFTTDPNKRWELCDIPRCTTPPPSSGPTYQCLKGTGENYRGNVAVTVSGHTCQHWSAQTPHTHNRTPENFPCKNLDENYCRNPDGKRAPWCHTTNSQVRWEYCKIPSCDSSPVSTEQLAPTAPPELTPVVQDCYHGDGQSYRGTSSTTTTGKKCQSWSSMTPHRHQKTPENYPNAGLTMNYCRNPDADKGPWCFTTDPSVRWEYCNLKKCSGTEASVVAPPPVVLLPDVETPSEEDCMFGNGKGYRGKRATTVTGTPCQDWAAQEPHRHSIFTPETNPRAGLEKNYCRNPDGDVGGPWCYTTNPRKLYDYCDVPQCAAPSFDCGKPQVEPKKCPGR

Row | rp: relative potency = Ki AMB/Ki multi [1] | Compound | Fold stronger plasmin inhibitor than the strongest monovalent benzamidine (plasmin)
1 | 664.3 | N=C(N)c1ccc(OCCCCCOc2ccc(C(=N)N)cc2)cc1 [Pentamidine, reference compound] | 13 fold
2 | 27.6 | N=C(N)c1ccc(CNC(=O)CCOCCOCCOCCOCCNC(=O)CN(CC(=O)NCCOCCOCCOCCOCCC(=O)NCc2ccc(C(=N)N)cc2)CC(=O)NCCOCCOCCOCCOCCC(=O)NCc2ccc(C(=N)N)cc2)cc1 [Tri‐PEG4−AMB] | 
3 | 3.9 | COCCOCCOCCOCCOCCOCCOCCOCCOCCOCCOCCOCCOCCC(=O)NCc1ccc(C(=N)N)cc1 [m‐dPEG12−AMB] | 
4 | 2.7 | COCCOCCOCCOCCOCCOCCOCCOCCOCCOCCOCCOCCOCCOCCOCCOCCOCCOCCOCCOCCOCCOCCOCCOCCOCCC(=O)NCc1ccc(C(=N)N)cc1 [m‐dPEG24−AMB] | 
